Values of other authors, collected in US7053240B2, “Process for synthesizing disulfides” (BioNumerik Pharmaceuticals, Inc., priority 2003, dated 2006).

Assays:
dogs = conditions: intravenously, doses higher than 3750 mg/kg
mice = conditions: intravenously, doses higher than 3750 mg/kg
[1] = accepted value

Structure (SMILES)	adverse effects (dogs)	adverse effects (mice)	oral LD50 [1] [mg/kg]
O=S(=O)(O)CCSSCCS(=O)(=O)O [Dimesna, disodium 2,2′-dithiobis ethane sulfonate]	no adverse effects	no adverse effects	–
[Cl-].[Na+] [common table salt]	–	–	3750
